Source: ChEMBL document CHEMBL4725284, “Junceellolide B, a novel inhibitor of Hepatitis B virus” (Bioorg Med Chem, 2020)

Assays:
Hepatitis B virus = assay: Antiviral activity against HBV infected in human HepAD38 cells assessed as inhibition of viral DNA at 10 uM incubated for 4 days by SYBR green dye based RT-PCR analysis relative to control; type: functional; conditions: HePAD38, 96 h, time 4 day
[1] = Cytotoxicity against human HePAD38 cells assessed as cell viability incubated for 72 hrs by MTT assay; type: cell-based
[2] = Cytotoxicity against human HepG2 cells assessed as cell viability incubated for 72 hrs by MTT assay; type: cell-based

Row | Compound | inhibition at 10 µM (Hepatitis B virus) | CC50 at 72 h [1] | CC50 at 72 h [2]
1 | C=C1CC[C@H](OC(C)=O)[C@]2(C)[C@@H](OC(C)=O)C[C@@H](OC(C)=O)/C(C(=O)OC)=C\[C@@H]3OC(=O)[C@H](C)[C@@]3(O)[C@@H](OC(C)=O)[C@@H]12 | 1% | > 100 µM | > 100 µM
2 | C=C1CC[C@H](OC(C)=O)[C@@]2(C)[C@H]1[C@H](OC(C)=O)[C@@]13O[C@@H](C(=C)[C@H](Cl)[C@@H]1OC(=O)[C@@H]3C)[C@@H](OC(C)=O)[C@@H]2OC(C)=O | 27% | > 100 µM | > 100 µM
3 | C=C1C[C@H](OC(C)=O)[C@H](OC(C)=O)[C@@]2(C)[C@H]1[C@H](OC(C)=O)[C@@]13O[C@@H](C(=C)[C@H](Cl)[C@@H]1OC(=O)[C@@H]3C)[C@@H](O)[C@@H]2OC(C)=O | 0% | > 100 µM | > 100 µM
4 | C=C1CC[C@H](OC(C)=O)[C@]2(C)[C@@H](OC(C)=O)C[C@@H](OC(C)=O)/C(COC(C)=O)=C\[C@@H]3OC(=O)[C@H](C)[C@@]3(O)[C@@H](OC(C)=O)[C@@H]12 | 0% | > 100 µM | > 100 µM
5 | C=C1CC[C@H](OC(C)=O)[C@]2(C)[C@@H](OC(C)=O)/C=C/C(COC(C)=O)=C\[C@@H]3OC(=O)[C@H](C)[C@@]3(O)[C@@H](OC(C)=O)[C@@H]12 | 0% | > 100 µM | > 100 µM
6 | CC(=O)OCC1=C/[C@@H]2OC(=O)[C@H](C)[C@@]2(O)[C@@H](OC(C)=O)[C@H]2[C@]3(CC[C@H](OC(C)=O)[C@]2(C)[C@@H](OC(C)=O)/C=C\1)CO3 | 0% | > 100 µM | > 100 µM
7 | C=C1CC[C@H](OC(C)=O)[C@]2(C)[C@@H](OC(C)=O)C[C@@H](OC(C)=O)/C(CO)=C\[C@@H]3OC(=O)[C@H](C)[C@@]3(O)[C@@H](OC(C)=O)[C@@H]12 | 0% | > 100 µM | > 100 µM
8 | C=C1[C@@H](OC(C)=O)C[C@H](OC(C)=O)[C@]2(C)[C@@H](OC(C)=O)C[C@@H](OC(C)=O)/C(C)=C\[C@@H]3OC(=O)[C@H](C)[C@@]3(O)[C@@H](OC(C)=O)[C@@H]12 | 0% | > 100 µM | > 100 µM
9 | C=C1CC[C@H](OC(C)=O)[C@]2(C)[C@@H](OC(C)=O)C[C@@H](OC(C)=O)/C(CCl)=C\[C@@H]3OC(=O)[C@H](C)[C@@]3(O)[C@@H](OC(C)=O)[C@@H]12 | 0% | > 100 µM | > 100 µM
10 | C=C1CC[C@H](OC(C)=O)[C@]2(C)[C@@H](OC(C)=O)C[C@@]3(O)O[C@@]4([C@H](C=C3CO)OC(=O)[C@@H]4C)[C@@H](OC(C)=O)[C@@H]12 | 0% | > 100 µM | > 100 µM
11 | C=C1CC[C@H](OC(C)=O)[C@]2(C)[C@@H](OC(=O)COC(C)=O)/C=C\C(=C)[C@H](Cl)[C@@H]3OC(=O)[C@H](C)[C@@]3(O)[C@@H](OC(C)=O)[C@@H]12 | 6% | > 100 µM | > 100 µM
12 | CC(=O)OCC(=O)O[C@H]1/C=C\C(CCl)=C/[C@@H]2OC(=O)[C@H](C)[C@@]2(O)[C@@H](OC(C)=O)[C@H]2[C@@](O)(CCl)CC[C@H](OC(C)=O)[C@]12C | 58% | > 100 µM | > 100 µM
13 | C=C1[C@H](OC(C)=O)C[C@H](OC(=O)CC)[C@@]2(C)[C@@H](OC(C)=O)CC[C@]3(CO3)[C@@H]2[C@H](OC(C)=O)[C@]2(O)[C@@H](C)C(=O)O[C@H]2[C@H]1Cl | 0% | > 100 µM | > 100 µM
14 | C=C1/C=C/[C@H](OC(=O)CC)[C@@]2(C)[C@@H](OC(C)=O)[C@@H](OC(C)=O)C[C@]3(CO3)[C@@H]2[C@H](OC(C)=O)[C@]2(O)[C@@H](C)C(=O)O[C@H]2[C@H]1Cl | 0% | > 100 µM | > 100 µM
15 | C=C1[C@H]2O[C@H]2[C@H](OC(C)=O)[C@@]2(C)[C@@H](OC(C)=O)CC[C@]3(CO3)[C@@H]2[C@H](OC(C)=O)[C@]2(O)[C@@H](C)C(=O)O[C@H]2[C@H]1Cl | 29% | > 100 µM | > 100 µM
16 | CC(=O)O[C@H]1CC[C@]2(CO2)[C@@H]2[C@H](OC(C)=O)[C@@]3(O)[C@H](/C=C(CCl)\C=C/[C@H](OC(=O)COC(=O)CC(C)C)[C@@]12C)OC(=O)[C@@H]3C | 0% | > 100 µM | > 100 µM
17 | C=C1/C=C\[C@H](OC(=O)COC(=O)CC(C)C)[C@@]2(C)[C@@H](OC(C)=O)CC[C@]3(CO3)[C@@H]2[C@H](OC(C)=O)[C@]2(O)[C@@H](C)C(=O)O[C@H]2[C@H]1Cl [FRAJUNOLIDE G] | 0% | > 100 µM | > 100 µM
18 | C=C1CC[C@H](OC(C)=O)[C@]2(C)[C@@H](OC(C)=O)C[C@@]3(O)O[C@]4([C@@H](C)C(=O)O[C@H]4[C@@H](Cl)C3=C)[C@@H](OC(C)=O)[C@@H]12 | 40% | > 100 µM | > 100 µM

Row | Compound | inhibition at 10 µM (Hepatitis B virus) | CC50 at 72 h [1] | CC50 at 72 h [2]
19 | C=C1CC[C@H](OC(C)=O)[C@]2(C)[C@@H](OC(C)=O)/C=C/[C@]3(CO3)[C@H](Cl)[C@@H]3OC(=O)[C@H](C)[C@@]3(O)[C@@H](OC(C)=O)[C@@H]12 | 0% | > 100 µM | > 100 µM
20 | CC(=O)OC/C1=C/[C@@H]2OC(=O)[C@H](C)[C@@]2(O)[C@@H](OC(C)=O)[C@H]2[C@]3(CC[C@H](OC(C)=O)[C@]2(C)[C@@H](OC(C)=O)C[C@H]1OC(C)=O)CO3 | 0% | > 100 µM | > 100 µM
21 | C=C1/C=C/[C@H](OC(C)=O)[C@@]2(C)[C@@H](OC(C)=O)C[C@H](OC(C)=O)[C@]3(CO3)[C@@H]2[C@H](OC(C)=O)[C@]2(O)[C@@H](C)C(=O)O[C@H]2[C@H]1Cl | 1% | > 100 µM | > 100 µM
22 | C=C1[C@H](Cl)[C@@H]2OC(=O)[C@H](C)[C@]23O[C@@H]1[C@@H](O)[C@H](OC(C)=O)[C@@]1(C)[C@@H](OC(C)=O)CC[C@]2(CO2)[C@@H]1[C@@H]3OC(C)=O | 0% | > 100 µM | > 100 µM
23 | C=C1[C@H](Cl)[C@@H]2OC(=O)[C@H](C)[C@]23O[C@@H]1[C@@H](OC(C)=O)[C@H](OC(C)=O)[C@@]1(C)[C@@H](OC(C)=O)CC[C@]2(CO2)[C@@H]1[C@@H]3OC(C)=O | 17% | > 100 µM | > 100 µM
24 | C=C1CC[C@H](OC(C)=O)[C@]2(C)[C@@H](OC(C)=O)C[C@@H](OC(C)=O)C(=C)[C@H](Cl)[C@@H]3OC(=O)[C@H](C)[C@@]3(O)[C@@H](OC(C)=O)[C@@H]12 | 63% | > 100 µM | > 100 µM
25 | C=C1CC[C@H](OC(C)=O)[C@]2(C)[C@@H](OC(C)=O)C[C@@H](OC(C)=O)/C(C)=C\[C@@H]3OC(=O)[C@H](C)[C@@]3(O)[C@@H](OC(C)=O)[C@@H]12 | 31% | > 100 µM | > 100 µM
26 | C=C1CC[C@H](OC(=O)CC(C)C)[C@]2(C)[C@@H](OC(C)=O)C[C@@H](OC(C)=O)/C(C)=C\[C@@H]3OC(=O)[C@H](C)[C@@]3(O)[C@@H](OC(C)=O)[C@@H]12 | 0% | > 100 µM | > 100 µM
27 | C=C1[C@H](OC(C)=O)C[C@H](OC(C)=O)[C@@]2(C)[C@@H](OC(C)=O)CC[C@]3(CO3)[C@@H]2[C@H](OC(C)=O)[C@]2(O)[C@@H](C)C(=O)O[C@H]2[C@H]1Cl | 39% | > 100 µM | > 100 µM
28 | Nc1ccn([C@@H]2CS[C@H](CO)O2)c(=O)n1 [LAMIVUDINE] | 70% | – | –
29 | C=C1C[C@H](OC(C)=O)[C@H](OC(C)=O)[C@]2(C)[C@@H](OC(C)=O)/C=C/C(=C)[C@H](Cl)[C@@H]3OC(=O)[C@H](C)[C@@]3(O)[C@@H](OC(C)=O)[C@@H]12 [FRAJUNOLIDE H] | 25% | > 100 µM | > 100 µM
30 | C=C1/C=C\[C@H](OC(C)=O)[C@@]2(C)[C@@H](OC(C)=O)CC[C@]3(CO3)[C@@H]2[C@H](OC(C)=O)[C@]2(O)[C@@H](C)C(=O)O[C@H]2[C@H]1Cl | 0% | > 100 µM | > 100 µM
31 | CC(=O)OCC(=O)O[C@H]1/C=C\C(COC(C)=O)=C/[C@@H]2OC(=O)[C@H](C)[C@@]2(O)[C@@H](OC(C)=O)[C@H]2[C@]3(CC[C@H](OC(C)=O)[C@]12C)CO3 | 0% | > 100 µM | > 100 µM
32 | CC(=O)OCC1=C/[C@@H]2OC(=O)[C@H](C)[C@@]2(O)[C@@H](OC(C)=O)[C@H]2[C@]3(CC[C@H](OC(C)=O)[C@]2(C)[C@@H](OC(=O)COC(=O)CC(C)C)/C=C\1)CO3 | 0% | > 100 µM | > 100 µM
33 | CC(=O)O[C@H]1CC[C@]2(CO2)[C@@H]2[C@H](OC(C)=O)[C@@]3(O)[C@H](/C=C(/C)[C@H](OC(C)=O)C[C@H](OC(C)=O)[C@@]12C)OC(=O)[C@@H]3C [11ALPHA,20ALPHA-EPOXYJUNCEELLOLIDE] | 3% | > 100 µM | > 100 µM
34 | C=C1[C@H](Cl)[C@@H]2OC(=O)[C@H](C)[C@]23O[C@@H]1[C@@H](O)[C@H](OC(C)=O)[C@@]1(C)[C@@H](OC(C)=O)[C@@H](OC(C)=O)C[C@]2(CO2)[C@@H]1[C@@H]3OC(C)=O | 31% | > 100 µM | > 100 µM
35 | C=C1/C=C\[C@H](OC(=O)COC(C)=O)[C@@]2(C)[C@@H](OC(C)=O)CC[C@]3(CO3)[C@@H]2[C@H](OC(C)=O)[C@]2(O)[C@@H](C)C(=O)O[C@H]2[C@H]1Cl | 0% | > 100 µM | > 100 µM
